The values below come from US9969742B2, “Imidazotriazinone compounds” (Ironwood Pharmaceuticals, Inc., priority 2012, dated 2018).

Each structure is given as a SMILES string.

T1 sequence (O76083 1-533 isoform O76083-2): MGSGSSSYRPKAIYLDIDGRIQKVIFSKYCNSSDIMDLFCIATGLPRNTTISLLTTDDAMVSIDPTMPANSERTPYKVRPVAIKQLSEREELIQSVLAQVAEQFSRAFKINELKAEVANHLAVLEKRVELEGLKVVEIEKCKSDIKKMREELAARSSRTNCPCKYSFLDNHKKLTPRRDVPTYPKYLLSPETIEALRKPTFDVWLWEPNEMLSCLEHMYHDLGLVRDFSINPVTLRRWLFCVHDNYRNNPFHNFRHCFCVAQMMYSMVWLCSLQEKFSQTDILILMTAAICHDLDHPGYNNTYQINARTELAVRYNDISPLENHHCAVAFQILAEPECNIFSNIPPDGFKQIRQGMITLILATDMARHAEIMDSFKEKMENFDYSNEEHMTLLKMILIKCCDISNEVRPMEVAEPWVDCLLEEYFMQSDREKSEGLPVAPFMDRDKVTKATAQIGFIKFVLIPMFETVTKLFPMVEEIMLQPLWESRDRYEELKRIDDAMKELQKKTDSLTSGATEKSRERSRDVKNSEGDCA

The first assay has as its target T1, PDE9A2 (Homo sapiens, UniProt O76083).
T1 construct: purchased Reaction Biology Corporation, Malvern, Pa
The assay is described as follows: Phosphodiesterase enzyme screening assay, PDE9A2. To be noted: 4.0 μM cGMP substrate, 1 hour at R.T.; read-out: Band (PDE9A2 IC50). In kind it is biochemical. An excerpt:
Compounds of the invention were screened against PDE1A, PDE1B, PDE2A, PDE3A, PDE3B, PDE4A1A, PDE4B1, PDE4D3, PDE5A1, PDE6C, PDE7A, PDE8A1, PDE9A2, PDE10A2 AND PDE11A isoforms of the phosphodiesterase enzyme to determine activity and overall selectivity through comparative analysis. […] Where 8-methoxy-IBMX and Zaprinast were used as reference inhibitors.
The phosphodiesterase enzyme isoforms were obtained from a commercial retailer (Reaction Biology Corporation, Malvern, Pa.) for use in the instant screening assay.
The analysis was completed using the Caliper LabChip 3000 and a 12-sipper LabChip. LabChip assays are separations-based, meaning that the product and substrate are electrophoretically separated, thereby minimizing interferences and yielding the highest data quality available on any screening platform. […] High Z′ values, few false positives, few false negatives and analytical quality reproducibility are the reasons cited for the increasing reliance on the LabChip assays.
The off-chip incubation mobility-shift phosphodiesterase assay uses a microfluidic chip to measure the conversion of a fluorescent cyclic AMP substrate to a 5′-AMP product, or a cyclic GMP substrate to a 5′-GMP product. The reaction mixture, from a microtiter plate well, is introduced through a capillary sipper onto the chip, where the fluorescent substrate and product are separated by electrophoresis and detected via laser-induced fluorescence. […] The precision of microfluidics allows researchers to detect subtle interactions between drug candidates and therapeutic targets.
Reactions were carried out in 100 mM HEPES (pH 7.5), 5 mM MgCl2, 1 mM DTT, 0.003% Brij, 4.0 μM cGMP substrate. The reaction was started by addition of cGMP or cAMP and incubated for 1 hour at R.T. The reaction was terminated by the addition of stop buffer containing 100 mM HEPES (pH 7.5), 15 mM EDTA, 0.015% Brij-35, 5% DMSO. Cyclic AMP/GMP substrate and 5′-AMP/5′-GMP product were separated by charge using electrophoretic mobility shift. Product formed was compared to control wells to determine inhibition or enhancement of enzyme activity.
Data points were averages of quadruplicate wells and error bars represented the SEM for each point.
Consider `CC1CN(Cc2ccc(F)cc2)CC1c1nn2c(-c3ccccc3C(F)(F)F)ncc2c(=O)[nH]1` (single isomer, unassigned; (+)), for which the half-maximal inhibitory concentration (IC50) (as a rule, the midpoint of a concentration-inhibition curve) is below 1000 nM.

As for `CC1CN(Cc2ccccc2)CC1c1nn2c(-c3ccccc3C(F)(F)F)ncc2c(=O)[nH]1` (single isomer, unassigned; (+)), the concentration for half-maximal inhibition (IC50) was below 1000 nM.

Turning to `CC1CN(Cc2ncccn2)CC1c1nn2c(-c3ccccc3C(F)(F)F)ncc2c(=O)[nH]1` (single isomer, unassigned; (+)), the IC50 is below 1000 nM.

Consider `Cc1cnccc1-c1ncc2c(=O)[nH]c(C3CN(Cc4ccc(F)cc4)CC3C)nn12` (single isomer, unassigned; (+)) [(+)-2-((3,4-trans)-1-(4-fluorobenzyl)-4-methylpyrrolidin-3-yl)-7-(3-methylpyridin-4-yl) imidazo [5,1-f] [1,2,4] triazin-4 (3H)-one], for which the 50% inhibitory concentration (IC50) was below 1000 nM.

In the case of `CC1CN(Cc2nc3ccccn3n2)CC1c1nn2c(-c3ccccc3C(F)(F)F)ncc2c(=O)[nH]1` (single isomer, unassigned; (+)) [(+)-2-((3,4-trans)-1-([1,2,4]triazolo[1,5-a]pyridin-2-ylmethyl)-4-methylpyrrolidin-3-yl)-7-(2-(trifluoromethyl)phenyl)imidazo[5,1-f][1,2,4]triazin-4(3H)-one], the IC50 is below 1000 nM.

Turning to `CC1CN(Cc2nc3ccccn3n2)CC1c1nn2c(-c3ccccc3F)ncc2c(=O)[nH]1` (single isomer, unassigned; (+)) [(+)-2-((3,4-trans)-1-([1,2,4]triazolo[1,5-a]pyridin-2-ylmethyl)-4-methylpyrrolidin-3-yl)-7-(2-fluorophenyl)imidazo[5,1-f][1,2,4]triazin-4(3H)-one], the IC50 is below 1000 nM.

For `Cc1cnccc1-c1ncc2c(=O)[nH]c(C3CN(Cc4nc5ccccn5n4)CC3C)nn12` (single isomer, unassigned; (+)) [(+)-2-((3,4-trans)-1-([1,2,4]triazolo[1,5-a]pyridin-2-ylmethyl)-4-methylpyrrolidin-3-yl)-7-(3-methylpyridin-4-yl)imidazo[5,1-f][1,2,4]triazin-4(3H)-one], the IC50 is below 1000 nM.

The assay is the same for the next values; noted with them: Table 1; 10 concentrations; 4.0 μM cGMP substrate; 1 hour at R.T.; read-out: Band (PDE9A2 IC50).
Consider `Cc1cnc(CN2C[C@@H](C)[C@H](c3nn4c(C5CCOCC5)ncc4c(=O)[nH]3)C2)cn1` (relative stereo) [(+)-2-((3,4-trans)-4-methyl-1-((5-methylpyrazin-2-yl)methyl)pyrrolidin-3-yl)-7-(tetrahydro-2H-pyran-4-yl)imidazo[5,1-f][1,2,4]triazin-4(3H)-one], for which the half-inhibitory concentration (IC50) is below 1000 nM.

For the compound `Cc1ccc(Cl)cc1-c1ncc2c(=O)[nH]c([C@@H]3CNC[C@H]3C)nn12` (relative stereo) [(−)-7-(5-chloro-2-methylphenyl)-2-((3,4-trans)-4-methylpyrrolidin-3-yl)imidazo[5,1-f][1,2,4]triazin-4(3H)-one], the IC50 fell in the range of 1000 to 10000 nM.

Regarding `CC1CN(Cc2ccccc2)CC1c1nn2c(C3CCN(C)CC3)ncc2c(=O)[nH]1` (single isomer, unassigned) [2-((3,4-trans)-1-benzyl-4-methylpyrrolidin-3-yl)-7-(1-methylpiperidin-4-yl)imidazo[5,1-f][1,2,4]triazin-4(3H)-one], the IC50 lay in the range of 1000 to 10000 nM.

For `CC1CN(C(C)c2ccccc2)CC1c1nn2c(C3CCOCC3)ncc2c(=O)[nH]1` (single isomer, unassigned; (+)) [listing 1 of 2 here], the IC50 fell in the range of 1000 to 10000 nM.

With `CC1CN(C(C)c2ccccc2)CC1c1nn2c(C3CCOCC3)ncc2c(=O)[nH]1` (single isomer, unassigned; (+)) [listing 2 of 2 here], the IC50 is below 1000 nM.

Regarding `CC1CN(C(=O)c2ccc(F)cc2)CC1c1nn2c(C3CCOCC3)ncc2c(=O)[nH]1` (single isomer, unassigned; (+)) [(+)-2-((3,4-trans)-1-(4-fluorobenzoyl)-4-methylpyrrolidin-3-yl)-7-(tetrahydro-2H-pyran-4-yl)imidazo[5,1-f][1,2,4]triazin-4(3H)-one], the 50% inhibitory concentration (IC50) is 1000 to 10000 nM.

`CC1CN(S(=O)(=O)c2ccccc2F)CC1c1nn2c(C3CCOCC3)ncc2c(=O)[nH]1` (single isomer, unassigned; (+)) [(+)-2-((3,4-trans)-1-((2-fluorophenyl)sulfonyl)-4-methylpyrrolidin-3-yl)-7-(tetrahydro-2H-pyran-4-yl)imidazo[5,1-f][1,2,4]triazin-4(3H)-one]: the IC50 was below 1000 nM.

Take `CC1CN(S(=O)(=O)c2cccc(F)c2)CC1c1nn2c(C3CCOCC3)ncc2c(=O)[nH]1` (single isomer, unassigned; (+)) [(+)-2-((3,4-trans)-1-((3-fluorophenyl)sulfonyl)-4-methylpyrrolidin-3-yl)-7-(tetrahydro-2H-pyran-4-yl)imidazo[5,1-f][1,2,4]triazin-4(3H)-one]: the 50% inhibitory concentration (IC50) was below 1000 nM.

As for `CC1CN(S(=O)(=O)c2ccc(F)cc2)CC1c1nn2c(C3CCOCC3)ncc2c(=O)[nH]1` (single isomer, unassigned; (+)) [(+)-2-((3,4-trans)-1-((4-fluorophenyl)sulfonyl)-4-methylpyrrolidin-3-yl)-7-(tetrahydro-2H-pyran-4-yl)imidazo[5,1-f][1,2,4]triazin-4(3H)-one], the half-inhibitory concentration (IC50) was below 1000 nM.

Still in this assay, the particulars now being: Table 2; 10 concentrations; 4.0 μM cGMP substrate; 1 hour at R.T.; read-out: Band (PDE9A2 IC50).
For the compound `CC1CN(Cc2nc(C(F)(F)F)cc(C(F)(F)F)n2)CC1c1nn2c(C3CCOCC3)ncc2c(=O)[nH]1` (single isomer, unassigned; (+)) [(+)-2-((3,4-trans)-1-((4,6-bis(trifluoromethyl)pyrimidin-2-yl)methyl)-4-methylpyrrolidin-3-yl)-7-(tetrahydro-2H-pyran-4-yl)imidazo[5,1-f][1,2,4]triazin-4(3H)-one], the concentration for half-maximal inhibition (IC50) was below 1000 nM.

In the case of `CC1CN(Cc2ncc(F)c(N3CCOCC3)n2)CC1c1nn2c(C3CCOCC3)ncc2c(=O)[nH]1` (single isomer, unassigned; (+)) [(+)-2-((3,4-trans)-1-((5-fluoro-4-morpholinopyrimidin-2-yl)methyl)-4-methylpyrrolidin-3-yl)-7-(tetrahydro-2H-pyran-4-yl)imidazo[5,1-f][1,2,4]triazin-4(3H)-one], the half-inhibitory concentration (IC50) was below 1000 nM.

Staying with this assay, now noted: read-out: Band (PDE9A2 IC50).
`CC1CN(CC2CCNCC2)CC1c1nn2c(C3CCOCC3)ncc2c(=O)[nH]1` (single isomer, unassigned; (+)): the IC50 is below 1000 nM.

For `CC1CN(Cc2ccc(Cl)cc2)CC1c1nn2c(-c3cccc(F)c3)ncc2c(=O)[nH]1` (single isomer, unassigned; (+)) [(+)-2-((3,4-trans)-1-(4-chlorobenzyl)-4-methylpyrrolidin-3-yl)-7-(3-fluorophenyl)imidazo[5,1-f][1,2,4]triazin-4(3H)-one], the IC50 is 1000 to 10000 nM.

In the case of `Cc1ccncc1-c1ncc2c(=O)[nH]c(C3CN(Cc4ccc(F)cc4)CC3C)nn12` (single isomer, unassigned; (+)) [(+)-2-((3,4-trans)-1-(4-fluorobenzyl)-4-methylpyrrolidin-3-yl)-7-(4-methylpyridin-3-yl)imidazo[5,1-f][1,2,4]triazin-4(3H)-one], the IC50 is below 1000 nM.

`CC1CN(Cc2nc3ccccc3[nH]2)CC1c1nn2c(-c3ccc(F)cc3)ncc2c(=O)[nH]1` (single isomer, unassigned; (+)) [(+)-2-((3,4-trans)-1-((1H-benzo[d]imidazol-2-yl)methyl)-4-methylpyrrolidin-3-yl)-7-(4-fluorophenyl)imidazo[5,1-f][1,2,4]triazin-4(3H)-one]: the IC50 was below 1000 nM.
